Measured values published in patent US8822520B2, “Substituted bicyclic HCV inhibitors” (Presidio Pharmaceuticals, Inc., priority 2010, dated 2014).

Tested on: HCV genotype 1b replicon in Huh 7 cells (HCV 1b_Huh-Luc/Neo-ET cell line)
Test: HCV replicon assay (luciferase readout)
Type: cell-based
Details: Hepatitis C virus, Huh-7, 72 h, read-out: Inhibition of HCV genotype lb
Procedure: Biological activity of the compounds of the invention was determined using an HCV replicon assay. The HCV 1b_Huh-Luc/Neo-ET cell line persistently expressing a bicistronic genotype 1b replicon in Huh 7 cells was obtained from ReBLikon GMBH. This cell line was used to test compound inhibition using luciferase enzyme activity readout as a measurement of compound inhibition of replicon levels.
On Day 1 (the day after plating cells), each compound is added in triplicate to the cells. Plates are incubated for 72 h prior to determining luciferase levels. Enzyme activity was measured using a Bright-Glo Kit (cat. number E2620) manufactured by Promega Corporation. The following equation was used to generate a percent control value for each compound. % Control=(Compound Luciferase Level/Control Luciferase Level)*100
The EC50 value was determined using GraphPad Prism and the following equation: Y=Bottom asymptote+(Top asymptote−Bottom asymptote)/(1+10^((Log EC50−X)*HillSlope))
EC50 values of compounds are determined several times in the replicon assay to generate average EC50 values.

SMILES	EC50 [nM]
COCCOc1cc(-c2cnc([C@@H]3CCCN3C(=O)[C@H](NC(=O)OC)c3cccs3)[nH]2)ccc1-c1ccc(-c2cnc([C@@H]3CCCN3C(=O)[C@H](NC(=O)OC)c3cccs3)[nH]2)cc1OCCOC [Compound 79]	< 1
COC(=O)N[C@H](C(=O)N1CCC[C@H]1c1ncc(-c2ccc(-c3ccc(-c4cnc([C@@H]5CCCN5C(=O)[C@@H](NC(=O)OC)C(C)C)[nH]4)c4c3OCCOCCOCCO4)cc2)[nH]1)C(C)C [Compound 80]	< 1
COCCOc1cc(-c2cnc([C@@H]3CCCN3C(=O)[C@@H](c3ccccc3)N(C)C)[nH]2)ccc1-c1ccc(-c2cnc([C@@H]3CCCN3C(=O)[C@@H](c3ccccc3)N(C)C)[nH]2)cc1OCCOC [Compound 81]	1 to 9.9
COCCOc1cc(-c2cnc([C@@H]3CCCN3C(=O)[C@@H](c3ccccc3)N3CCCC3)[nH]2)ccc1-c1ccc(-c2cnc([C@@H]3CCCN3C(=O)[C@@H](c3ccccc3)N3CCCC3)[nH]2)cc1OCCOC [Compound 82]	1 to 9.9
COCCOc1cc(-c2cnc([C@@H]3CCCN3C(=O)[C@H](NC(C)=O)c3ccccc3)[nH]2)ccc1-c1ccc(-c2cnc([C@@H]3CCCN3C(=O)[C@H](NC(C)=O)c3ccccc3)[nH]2)cc1OCCOC [Compound 83]	1 to 9.9
COCCOc1cc(-c2cnc([C@@H]3CCCN3C(=O)[C@H](NS(C)(=O)=O)c3ccccc3)[nH]2)ccc1-c1ccc(-c2cnc([C@@H]3CCCN3C(=O)[C@H](NS(C)(=O)=O)c3ccccc3)[nH]2)cc1OCCOC [Compound 84]	1 to 9.9
CNC(=O)N[C@@H](C(=O)N1CCC[C@H]1c1ncc(-c2ccc(-c3ccc(-c4cnc([C@@H]5CCCN5C(=O)[C@H](NC(=O)NC)c5ccccc5)[nH]4)cc3OCCOC)c(OCCOC)c2)[nH]1)c1ccccc1 [Compound 85]	1 to 9.9
COCCOc1cc(-c2cnc([C@@H]3CCCN3C(=O)[C@H](C)NC(=O)OC)[nH]2)ccc1-c1ccc(-c2cnc([C@@H]3CCCN3C(=O)[C@@H](NC(=O)OC)C(C)C)[nH]2)cc1OCCOC [Compound 86]	1 to 9.9
COCCOc1cc(-c2cnc([C@@H]3CCCN3C(=O)[C@H](COC)NC(=O)OC)[nH]2)ccc1-c1ccc(-c2cnc([C@@H]3CCCN3C(=O)[C@@H](NC(=O)OC)C(C)C)[nH]2)cc1OCCOC [Compound 87]	1 to 9.9
COCCOc1cc(-c2cnc([C@@H]3CCCN3C(=O)[C@@H](NC(=O)OC)C(C)C)[nH]2)ccc1-c1ccc(-c2cnc([C@@H]3CCCN3C(=O)[C@H](NC(=O)OC)c3ccsc3)[nH]2)cc1OCCOC [Compound 88]	< 1
COCCOc1cc(-c2cnc([C@@H]3CCCN3C(=O)[C@@H](NC(=O)OC)C(C)C)[nH]2)ccc1-c1ccc(-c2cnc([C@@H]3CCCN3C(=O)[C@H](NC(=O)OC)c3cccs3)[nH]2)cc1OCCOC [Compound 89]	< 1
COCCOc1cc(-c2cnc([C@@H]3CCCN3C(=O)[C@@H](NC(=O)OC)C(C)C)[nH]2)ccc1-c1ccc(-c2cnc([C@@H]3CCCN3C(=O)[C@@H](c3ccccc3)N(C)C)[nH]2)cc1OCCOC [Compound 90]	1 to 9.9
COCCOc1c(-c2ccc(-c3cnc([C@@H]4CCCCN4C(=O)[C@@H](NC(=O)OC)C(C)C)[nH]3)cc2)ccc(-c2cnc([C@@H]3CCCCN3C(=O)[C@@H](NC(=O)OC)C(C)C)[nH]2)c1OCCOC [Compound 91]	1 to 9.9
COCCOc1cc(-c2cnc([C@@H]3CCCN3C(=O)[C@@H](NC(=O)OC)C(C)C)[nH]2)cc(OCCOC)c1-c1ccc(-c2cnc([C@@H]3CCCN3C(=O)[C@@H](NC(=O)OC)C(C)C)[nH]2)cc1 [Compound 92]	< 1
